From US8188085B2, “Antifungal agents” (Merck Sharp & Dohme Corp., priority 2008, dated 2012) come the findings set out here.

The structures appear in SMILES notation.

In the assay the target is glucan synthase (GS) prepared from Candida albicans MY1055 (Candida albicans, UniProt O13428). The assay can be described thus: Glucan synthase inhibition (polymerization assay, 96-well). It counts as biochemical. As to conditions: GS from C. albicans MY1055; 60 min incubation at 22° C.; read-out: Candida Albicans GS IC50 (converted). Put shortly: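 Partially purified glucan synthase from C. albicans MY1055 membranes incorporated 0.5 mM ³H-UDPG with 25 μM GTP-γ-S, HEPES pH 7.5, over 60 min at 22 °C. TCA-precipitated glucan was counted by scintillation. IC50 (ng/mL) came from sigmoidal fits of duplicate 3-fold dilution series.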
Chain of glucan synthase (GS) prepared from Candida albicans MY1055 (O13428 1-1897): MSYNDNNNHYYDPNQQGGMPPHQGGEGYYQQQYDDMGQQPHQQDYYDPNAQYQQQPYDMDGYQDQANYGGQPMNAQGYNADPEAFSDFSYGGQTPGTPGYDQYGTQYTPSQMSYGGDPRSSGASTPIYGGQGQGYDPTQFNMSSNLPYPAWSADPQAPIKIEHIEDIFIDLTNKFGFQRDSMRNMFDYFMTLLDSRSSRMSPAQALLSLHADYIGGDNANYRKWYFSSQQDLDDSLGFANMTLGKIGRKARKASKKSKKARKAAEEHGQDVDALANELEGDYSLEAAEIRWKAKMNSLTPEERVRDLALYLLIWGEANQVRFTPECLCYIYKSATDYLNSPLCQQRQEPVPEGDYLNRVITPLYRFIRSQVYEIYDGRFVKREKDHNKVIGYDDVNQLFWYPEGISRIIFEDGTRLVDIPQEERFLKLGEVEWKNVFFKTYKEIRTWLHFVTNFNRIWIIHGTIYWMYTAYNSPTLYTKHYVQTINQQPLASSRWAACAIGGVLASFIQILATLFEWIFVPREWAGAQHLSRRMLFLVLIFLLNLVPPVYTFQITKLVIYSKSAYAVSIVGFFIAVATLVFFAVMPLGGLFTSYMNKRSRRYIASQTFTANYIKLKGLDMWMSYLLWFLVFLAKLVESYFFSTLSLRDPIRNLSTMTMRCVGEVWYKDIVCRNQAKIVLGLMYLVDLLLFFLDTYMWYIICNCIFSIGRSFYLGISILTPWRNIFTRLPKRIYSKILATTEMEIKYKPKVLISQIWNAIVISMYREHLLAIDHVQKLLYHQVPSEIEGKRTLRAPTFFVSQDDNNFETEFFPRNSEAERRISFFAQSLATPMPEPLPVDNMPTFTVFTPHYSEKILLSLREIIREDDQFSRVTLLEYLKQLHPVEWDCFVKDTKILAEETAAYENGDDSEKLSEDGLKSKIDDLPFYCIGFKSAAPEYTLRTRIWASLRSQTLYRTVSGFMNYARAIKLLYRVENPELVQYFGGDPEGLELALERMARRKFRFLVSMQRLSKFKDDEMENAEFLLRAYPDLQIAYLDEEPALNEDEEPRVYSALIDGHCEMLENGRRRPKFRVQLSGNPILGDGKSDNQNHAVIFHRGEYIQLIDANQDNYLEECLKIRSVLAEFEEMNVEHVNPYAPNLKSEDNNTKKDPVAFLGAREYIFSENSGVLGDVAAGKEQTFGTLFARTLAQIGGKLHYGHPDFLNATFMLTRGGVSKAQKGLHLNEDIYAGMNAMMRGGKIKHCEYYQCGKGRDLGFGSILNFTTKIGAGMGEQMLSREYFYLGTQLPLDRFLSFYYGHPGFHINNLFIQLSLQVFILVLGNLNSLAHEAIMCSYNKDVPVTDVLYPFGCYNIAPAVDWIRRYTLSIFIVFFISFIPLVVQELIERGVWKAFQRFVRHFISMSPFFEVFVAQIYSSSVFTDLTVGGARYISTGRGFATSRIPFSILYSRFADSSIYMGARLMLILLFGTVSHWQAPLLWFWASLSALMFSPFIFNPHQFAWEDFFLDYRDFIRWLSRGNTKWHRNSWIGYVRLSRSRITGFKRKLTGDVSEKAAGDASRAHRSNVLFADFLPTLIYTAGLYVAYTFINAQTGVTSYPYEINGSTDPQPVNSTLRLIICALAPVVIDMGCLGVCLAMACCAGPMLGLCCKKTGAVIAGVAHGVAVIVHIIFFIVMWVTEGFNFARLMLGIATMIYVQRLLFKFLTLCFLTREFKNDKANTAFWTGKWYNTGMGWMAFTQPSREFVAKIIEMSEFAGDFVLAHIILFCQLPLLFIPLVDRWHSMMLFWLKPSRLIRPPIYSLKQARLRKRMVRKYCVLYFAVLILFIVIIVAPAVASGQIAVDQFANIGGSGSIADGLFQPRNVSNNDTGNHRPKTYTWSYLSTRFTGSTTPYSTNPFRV
Regarding `CN[C@@](C)(CO[C@H]1[C@H](n2ncnc2C2=NCCCN2)C[C@@]23COC[C@]1(C)[C@@H]2CC[C@H]1C3=CC[C@@]2(C)[C@H](C(=O)O)[C@@](C)([C@H](C)C(C)C)CC[C@]12C)C(C)(C)C` [Example 136, (1S,4aR,6aS,7R,8R,10aR,10bR,12aR,14R,15R)-8-[(1R)-1,2-dimethylpropyl]-14-[5-(1,4,5,6-tetrahydro-2-pyrimidinyl)-1H-1,2,4-triazol-1-yl]-15-[[(2R)-2,3,3-trimethyl-2-(methylamino)butyl]oxy]-1,6,6a,7,8,9,10,10a,10b,11,12,12a-dodecahydro-1,6a,8,10a-tetramethyl-4H-1,4a-propano-2H-phenanthro[1,2-c]pyran-7-carboxylic acid], the half-maximal inhibitory concentration (IC50) (usually the concentration that gives 50% inhibition) is 12 nM.
`CC(C)[C@@H](C)[C@@]1(C)CC[C@]2(C)[C@H]3CC[C@@H]4[C@@]5(COC[C@@]4(C)[C@@H](OC[C@](C)(N)C(C)C)[C@H](n4cc(Cl)cn4)C5)C3=CC[C@@]2(C)[C@@H]1C(=O)O` [Example 295, (1S,4aR,6aS,7R,8R,10aR,10bR,12aR,14R,15R)-15-[[(2R)-2-amino-2,3-dimethylbutyl]oxy]-14-(4-chloro-1H-pyrazol-1-yl)-8-[(1R)-1,2-dimethylpropyl]-1,6,6a,7,8,9,10,10a,10b,11,12,12a-dodecahydro-1,6a,8,10a-tetramethyl-4H-1,4a-propano-2H-phenanthro[1,2-c]pyran-7-carboxylic acid]: the IC50 was 61 nM.
Consider `CC(C)[C@@H](C)[C@@]1(C)CC[C@]2(C)[C@H]3CC[C@@H]4[C@@]5(COC[C@@]4(C)[C@@H](OC[C@](C)(C(C)C)N(C)C)[C@H](n4cnc(N)n4)C5)C3=CC[C@@]2(C)[C@@H]1C(=O)O` [Example 27, (1S,4aR,6aS,7R,8R,10aR,10bR,12aR,14R,15R)-14-(3-amino-1H-1,2,4-triazol-1-yl)-15-[[(2S)-2-(dimethylamino)-2,3-dimethylbutyl]oxy]-8-[(1R)-1,2-dimethylpropyl]-1,6,6a,7,8,9,10,10a,10b,11,12,12a-dodecahydro-1,6a,8,10a-tetramethyl-4H-1,4a-propano-2H-phenanthro[1,2-c]pyran-7-carboxylic acid], for which the IC50 was 16.1 nM.
The result for `CNC(=O)c1ncnn1[C@@H]1C[C@@]23COC[C@](C)([C@@H]2CC[C@H]2C3=CC[C@@]3(C)[C@H](C(=O)O)[C@@](C)([C@H](C)C(C)C)CC[C@]23C)[C@H]1OCC1(N)CCOCC1` [Example 112, (1S,4aR,6aS,7R,8R,10aR,10bR,12aR,14R,15R)-15-[(4-aminotetrahydro-2H-pyran-4-yl)methoxy]-8-[(1R)-1,2-dimethylpropyl]-14-[5-[(methylamino)carbonyl]-1H-1,2,4-triazol-1-yl]-1,6,6a,7,8,9,10,10a,10b,11,12,12a-dodecahydro-1,6a,8,10a-tetramethyl-4H-1,4a-propano-2H-phenanthro[1,2-c]pyran-7-carboxylic acid] reads 9.86 nM; that for `CC(C)[C@@H](C)[C@@]1(C)CC[C@]2(C)[C@H]3CC[C@@H]4[C@@]5(COC[C@@]4(C)[C@@H](OC[C@H](N)C(C)(C)C)[C@H](n4ncnc4C(N)=O)C5)C3=CC[C@@]2(C)[C@@H]1C(=O)O` [Example 97, (1S,4aR,6aS,7R,8R,10aR,10bR,12aR,14R,15R)-14-[5-(aminocarbonyl)-1H-1,2,4-triazol-1-yl]-15-[[(2R)-2-amino-3,3-dimethylbutyl]oxy]-8-[(1R)-1,2-dimethylpropyl]-1,6,6a,7,8,9,10,10a,10b,11,12,12a-dodecahydro-1,6a,8,10a-tetramethyl-4H-1,4a-propano-2H-phenanthro[1,2-c]pyran-7-carboxylic acid], 11.7 nM.
As for `CC(C)[C@@H](C)[C@@]1(C)CC[C@]2(C)[C@H]3CC[C@@H]4[C@@]5(COC[C@@]4(C)[C@@H](OC[C@](C)(N)C(C)C)[C@H](n4ncnc4N)C5)C3=CC[C@@]2(C)[C@@H]1C(=O)O` [Example 31, (1S,4aR,6aS,7R,8R,10aR,10bR,12aR,14R,15R)-15-[[(2R)-2-amino-2,3-dimethylbutyl]oxy]-14-(5-amino-1H-1,2,4-triazol-1-yl)-8-[(1R)-1,2-dimethylpropyl]-1,6,6a,7,8,9,10,10a,10b,11,12,12a-dodecahydro-1,6a,8,10a-tetramethyl-4H-1,4a-propano-2H-phenanthro[1,2-c]pyran-7-carboxylic acid], the half-inhibitory concentration (IC50) was 15.3 nM.
Turning to `CC(C)[C@@H](C)[C@@]1(C)CC[C@]2(C)[C@H]3CC[C@@H]4[C@@]5(COC[C@@]4(C)[C@@H](OC[C@](C)(N)C(C)(C)C)[C@H](n4ncnc4S(N)(=O)=O)C5)C3=CC[C@@]2(C)[C@@H]1C(=O)O` [Example 123C, (1S,4aR,6aS,7R,8R,10aR,10bR,12aR,14R,15R)-14-[5-(aminosulfonyl)-1H-1,2,4-triazol-1-yl]-15-[[(2R)-2-amino-2,3,3-trimethylbutyl]oxy]-8-[(1R)-1,2-dimethylpropyl]-1,6,6a,7,8,9,10,10a,10b,11,12,12a-dodecahydro-1,6a,8,10a-tetramethyl-4H-1,4a-propano-2H-phenanthro[1,2-c]pyran-7-carboxylic acid], the IC50 is 5.46 nM.
As for `CC(C)[C@@H](C)[C@@]1(C)CC[C@]2(C)[C@H]3CC[C@@H]4[C@@]5(COC[C@@]4(C)[C@@H](OC[C@](C)(N)C(C)C)[C@H](n4ncnc4-n4cncn4)C5)C3=CC[C@@]2(C)[C@@H]1C(=O)O` [Example 138, (1S,4aR,6aS,7R,8R,10aR,10bR,12aR,14R,15R)-15-[[(2R)-2-amino-2,3-dimethylbutyl]oxy]-14-[1,5′-bi-1H-1,2,4-triazol]-1′-yl-8-[(1R)-1,2-dimethylpropyl]-1,6,6a,7,8,9,10,10a,10b,11,12,12a-dodecahydro-1,6a,8,10a-tetramethyl-4H-1,4a-propano-2H-phenanthro[1,2-c]pyran-7-carboxylic acid], the IC50 is 8.5 nM.
On to `CN[C@@](C)(CO[C@H]1[C@H](n2nccc2-c2ccncc2)C[C@@]23COC[C@]1(C)[C@@H]2CC[C@H]1C3=CC[C@@]2(C)[C@H](C(=O)O)[C@@](C)([C@H](C)C(C)C)CC[C@]12C)C(C)C` [Example 312, (1S,4aR,6aS,7R,8R,10aR,10bR,12aR,14R,15R)-15-[[(2R)-2,3-dimethyl-2-(methylamino)butyl]oxy]-8-[(1R)-1,2-dimethylpropyl]-14-[5-(4-pyridinyl)-1H-pyrazol-1-yl]-1,6,6a,7,8,9,10,10a,10b,11,12,12a-dodecahydro-1,6a,8,10a-tetramethyl-4H-1,4a-propano-2H-phenanthro[1,2-c]pyran-7-carboxylic acid], for which the 50% inhibitory concentration (IC50) was 17.8 nM.
The result for `CN[C@@](C)(CO[C@H]1[C@H](n2cnc(N)n2)C[C@@]23COC[C@]1(C)[C@@H]2CC[C@H]1C3=CC[C@@]2(C)[C@H](C(=O)O)[C@@](C)([C@H](C)C(C)C)CC[C@]12C)C(C)C` [Example 5, (1S,4aR,6aS,7R,8R,10aR,10bR,12aR,14R,15R)-14-(3-amino-1H-1,2,4-triazol-1-yl)-15-[[(2R)-2,3-dimethyl-2-(methylamino)butyl]oxy]-8-[(1R)-1,2-dimethylpropyl]-1,6,6a,7,8,9,10,10a,10b,11,12,12a-dodecahydro-1,6a,8,10a-tetramethyl-4H-1,4a-propano-2H-phenanthro[1,2-c]pyran-7-carboxylic acid] reads 12 nM; that for `CCNC(=O)c1ccnn1[C@@H]1C[C@@]23COC[C@](C)([C@@H]2CC[C@H]2C3=CC[C@@]3(C)[C@H](C(=O)O)[C@@](C)([C@H](C)C(C)C)CC[C@]23C)[C@H]1OC[C@](C)(N)C(C)C` [Example 298, (1S,4aR,6aS,7R,8R,10aR,10bR,12aR,14R,15R)-15-[[(2R)-2-amino-2,3-dimethylbutyl]oxy]-8-[(1R)-1,2-dimethylpropyl]-14-[5-[(ethylamino)carbonyl]-1H-pyrazol-1-yl]-1,6,6a,7,8,9,10,10a,10b,11,12,12a-dodecahydro-1,6a,8,10a-tetramethyl-4H-1,4a-propano-2H-phenanthro[1,2-c]pyran-7-carboxylic acid], 38.1 nM.
In the case of `CC(C)[C@@H](C)[C@@]1(C)CC[C@]2(C)[C@H]3CC[C@@H]4[C@@]5(COC[C@@]4(C)[C@@H](OC[C@](C)(N)C(C)C)[C@H](n4nc(Br)nc4[N+](=O)[O-])C5)C3=CC[C@@]2(C)[C@@H]1C(=O)O` (single isomer, unassigned) [Example 29B], the IC50 is 81.3 nM.
As to `CC(C)[C@@H](C)[C@@]1(C)CC[C@]2(C)[C@H]3CC[C@@H]4[C@@]5(COC[C@@]4(C)[C@@H](OC[C@](C)(N)C(C)(C)C)[C@H](n4ncnc4-c4ccnc(N)c4)C5)C3=CC[C@@]2(C)[C@@H]1C(=O)O` [Example 214, (1S,4aR,6aS,7R,8R,10aR,10bR,12aR,14R,15R)-14-[5-(2-amino-4-pyridinyl)-1H-1,2,4-triazol-1-yl]-15-[[(2R)-2-amino-2,3,3-trimethylbutyl]oxy]-8-[(1R)-1,2-dimethylpropyl]-1,6,6a,7,8,9,10,10a,10b,11,12,12a-dodecahydro-1,6a,8,10a-tetramethyl-4H-1,4a-propano-2H-phenanthro[1,2-c]pyran-7-carboxylic acid], the concentration for half-maximal inhibition (IC50) was 1.34 nM.
Regarding `CN[C@@](C)(CO[C@H]1[C@H](n2ncnc2-c2cccs2)C[C@@]23COC[C@]1(C)[C@@H]2CC[C@H]1C3=CC[C@@]2(C)[C@H](C(=O)O)[C@@](C)([C@H](C)C(C)C)CC[C@]12C)C(C)C` [Example 163, (1S,4aR,6aS,7R,8R,10aR,10bR,12aR,14R,15R)-15-[[(2R)-2,3-dimethyl-2-(methylamino)butyl]oxy]-8-[(1R)-1,2-dimethylpropyl]-14-[5-(2-thienyl)-1H-1,2,4-triazol-1-yl]-1,6,6a,7,8,9,10,10a,10b,11,12,12a-dodecahydro-1,6a,8,10a-tetramethyl-4H-1,4a-propano-2H-phenanthro[1,2-c]pyran-7-carboxylic acid], the concentration for half-maximal inhibition (IC50) was 6.8 nM.
